# Source: patent US7906488B2, “Sphingolipids in treatment and prevention of steatosis and of steatosis or of hepatotoxicity and its sequelae” (Nederlandse Organisatie Voor …, priority 2004, dated 2011)
# Key:
# Assay type in all cases: in vivo
# [1] = tested on: APOE*3Leiden mice; assay: Liver lipid levels, liver appearance and liver histology; conditions: 1% PS diet; for Fat deposits / lipid-filled vacuoles in liver cells (HPS-stained sections): compared to controls
# [2] = tested on: APOE*3Leiden mice; assay: Hepatic mRNA expression levels by RT-PCR (normalized to HPRT); design: key to acc1 mRNA, Change / mttp mRNA, Change / dgat1 mRNA, Change / dgat2 mRNA, Change / aco mRNA, Change / ldlr mRNA, Change / apob mRNA, Change / srebp2 mRNA, Change / pparα mRNA, Change / pparγ mRNA, Change / lxrα mRNA, Change / lxrβ mRNA, Change / fxr mRNA, Change / hmgcoAred mRNA, Change / cyp7α mRNA, Change / abca1 mRNA, Change / srebp1c mRNA, Change / fas mRNA, Change: ↑, (upregulated); ↓, (downregulated); n.s., not significant
# Method: (§1) Plasma parameters: Tail blood samples were collected in EDTA-coated cups, or in paraoxon-coated capillaries to prevent lipolysis as described in Zambon et al. 1993 (Zambon et al. 1993. J. Lipid Res. 34:1021-1028). Plasma lipid parameters were determined using commercial kits for total cholesterol (C) Chol R1 from Roche Diagnostics, Mannheim, Germany), non-esterified free fatty acids (FFA) (NEFA-C; Wako chemicals, Neuss, Germany), Total triglycerides (TG) (Triglyceride GPO-Trinder; Sigma, St. Louis, Mo.), β-hydroxybutyrate (β-HB; Sigma) and ALAT (Reflotron GPT; Roche). Serum amyloid A (SAA) was measured by ELISA (Biosource, Nivelles, Belgium) and fibrinogen by sandwich ELISA, as described in Koopman et al., 2005 (Koopman et al. 2005. Fibrinol Proteol 11:19). For lipoproteins fractionation, groupwise-pooled plasma was size-fractionated by fast protein liquid chromatography (FPLC) on a Superose 6 column (Äkta; Amersham Pharmacia Biotech, Uppsala, Sweden). Fractions were assayed for total C and TG as described. Hepatic VLDL-TG production: The rate of hepatic VLDL-TG production, de novo apoB secretion, and VLDL composition were determined in overnight-fasted mice. Mice were anaesthetized with vetranquil/fentanyl/midazolam i.p., and injected i.v. with 0.1 ml PBS containing 100 μCi Tran^35S-label™ (ICN Biomedicals, Irvine, Calif.) to measure the de novo apoB synthesis. After 30 min, the animals received a Triton WR1339 injection (Tyloxapol, Sigma; 500 mg/kg body weight in 100 μl saline) to prevent systemic lipolysis of newly-secreted hepatic VLDL-TG (Aalto-Setala et al. 1992. J. Clin. Invest 90:1889-1900.27) Blood samples were drawn at 0, 15, 30, 60, and 90 min after Triton WR1339 injection and plasma TG concentrations were determined. After 90 min, the animals were sacrificed and blood was collected by retro-orbital bleeding for isolation of VLDL. VLDL composition: VLDL particles (d<1.019) were separated from other lipoproteins in plasma by density gradient ultra-centrifugation, as described in Jong et al., 1996 (Jong et al. 1996. Arterioscler. Thromb. Vasc. Biol. 16:934-940). Protein content of the VLDL fraction was determined by Lowry's assay (Lowry et al., 1951. J. Biol. Chem. 193:265-275), and TG and total C were determined as described above. Phospholipids and free cholesterol were determined using standard commercial kits (Wako Chemicals, Neuss, Germany). The ^35S-apoB content of VLDL was measured after selective precipitation of apoB with isopropanol as described elsewhere (Li et al. 1996 J. Lipid Res. 37:210-220; Pietzsch et al. 1995. Biochim. Biophys. Acta 1254:77-88). In vivo clearance of VLDL-like TG-rich particles: To determine whether 1% PS accelerates the clearance of TG-rich lipoproteins from plasma, we used radiolabeled emulsion particles as a tool. VLDL-like emulsion particles containing 200 μCi of [^3H]triolein and 20 μCi of [^14C]cholesteryl oleate were prepared and characterized as described in Rensen et al. 1997 (Rensen et al., 1997. J. Lipid Res. 38:1070-1084). Fed mice were anaesthetized as described above and laparotomy was performed. […] After taking the last liver and blood sample, the remainder of the liver, heart, spleen, hind limb muscle, and gonadal, perirenal and intestinal white adipose tissues were harvested. Lipids were extracted overnight at 60° C. in 500 μL of Solvable™, and radioactivity was counted as described in Rensen et al., 1997 (supra). RNA isolation and RT-PCR: Livers from 4 h-fasted mice fed 1% PS-containing diet or control Western-type diet for 5 weeks were removed immediately after sacrifice, flushed with cold 0.9% NaCl and snap frozen in liquid nitrogen. Total RNA was isolated as described by Chomczynski and Sacchi (Chomczynski, P. and Sacchi, N. 1987. Anal. Biochem. 162:156-159) by use of RNA-Bee™ (Campro Scientific, Berlin, Germany). cDNA synthesis was performed according to Bloks et al (Bloks et al., 2001. J. Lipid Res. 42:41-50). […]
# [3] = tested on: APOE*3Leiden mice; assay: Plasma ALAT, SAA and fibrinogen (plasma inflammation markers); conditions: 1% PS diet
# Method: as §1
# [4] = 1% PS diet, 5 weeks, control = 100%
compound,measurement,setting,value
"CCCCCCCCCCCCCC[C@@H](O)[C@@H](O)[C@@H](N)CO [PS, phytosphingosine]","Liver cholesteryl ester, % Δ vs control",[1]; 5 weeks,−61%
same,"Liver free cholesterol, % Δ vs control",[1]; 5 weeks,−11%
same,"Liver triglycerides, % Δ vs control",[1]; 5 weeks,−56%
same,Liver cholesteryl ester,"[1]; 5 weeks, 4 h-fasted",5.20 ± 0.79 μg/mg protein
same,Liver free cholesterol,"[1]; 5 weeks, 4 h-fasted",6.95 ± 0.78 μg/mg protein
same,Liver triglycerides,"[1]; 5 weeks, 4 h-fasted",15.28 ± 3.84 μg/mg protein
same,Fat deposits / lipid-filled vacuoles in liver cells (HPS-stained sections),[1],less lipid-filled vacuoles
same,Fat deposits / lipid-filled vacuoles in liver cells (HPS-stained sections),[1]; listed as phytosphingosine,absence of such fat deposits
same,Liver appearance at autopsy,[1]; control livers enlarged and yellowish,"of normal size, and had a dark-red appearance"
same,Decrease of liver Free C vs control,[1]; p<0.05,11%
same,Decrease of liver cholesteryl esters vs control,[1]; p<0.05,61%
same,"abca1 mRNA, Change",[2]; 1% PS diet vs control,n.s.
same,"acc1 mRNA, Change",[2]; 1% PS diet vs control,n.s.
same,"aco mRNA, Change",[2]; 1% PS diet vs control,n.s.
same,"apob mRNA, Change",[2]; 1% PS diet vs control,n.s.
same,"cyp7α mRNA, Change",[2]; 1% PS diet vs control,↓
same,"dgat1 mRNA, Change",[2]; 1% PS diet vs control,n.s.
same,"dgat2 mRNA, Change",[2]; 1% PS diet vs control,↑
same,"fas mRNA, Change",[2]; 1% PS diet vs control,↑
same,"fxr mRNA, Change",[2]; 1% PS diet vs control,↑
same,"hmgcoAred mRNA, Change",[2]; 1% PS diet vs control,↑
same,"ldlr mRNA, Change",[2]; 1% PS diet vs control,↑
same,"lxrα mRNA, Change",[2]; 1% PS diet vs control,↑
same,"lxrβ mRNA, Change",[2]; 1% PS diet vs control,↓
same,"mttp mRNA, Change",[2]; 1% PS diet vs control,↑
same,"pparα mRNA, Change",[2]; 1% PS diet vs control,n.s.
same,"pparγ mRNA, Change",[2]; 1% PS diet vs control,n.s.
same,"srebp1c mRNA, Change",[2]; 1% PS diet vs control,↑
same,"srebp2 mRNA, Change",[2]; 1% PS diet vs control,↑
same,abca1 hepatic mRNA level,[2]; [4],79 ± 6%
same,acc1 hepatic mRNA level,[2]; [4],138 ± 29%
same,aco hepatic mRNA level,[2]; [4],56 ± 9%
same,apob hepatic mRNA level,[2]; [4],105 ± 25%
same,cyp7α hepatic mRNA level,[2]; [4],7 ± 2%
same,dgat1 hepatic mRNA level,[2]; [4],112 ± 27%
same,dgat2 hepatic mRNA level,[2]; [4],185 ± 23%
same,fas hepatic mRNA level,[2]; [4],237 ± 33%
same,fxr hepatic mRNA level,[2]; [4],164 ± 58%
same,hmgcoAred hepatic mRNA level,[2]; [4],444 ± 71%
same,ldlr hepatic mRNA level,[2]; [4],209 ± 14%
same,lxrα hepatic mRNA level,[2]; [4],162 ± 13%
same,lxrβ hepatic mRNA level,[2]; [4],16 ± 8%
same,mttp hepatic mRNA level,[2]; [4],167 ± 5%
same,pparα hepatic mRNA level,[2]; [4],125 ± 10%
same,pparγ hepatic mRNA level,[2]; [4],119 ± 10%
same,srebp1c hepatic mRNA level,[2]; [4],194 ± 3%
same,srebp2 hepatic mRNA level,[2]; [4],317 ± 33%
same,"Plasma ALAT, % Δ vs control",[3]; 5 weeks,−79%
same,"Plasma SAA, % Δ vs control",[3]; 5 weeks,−74%
same,Plasma ALAT,"[3]; 5 weeks, 4 h-fasted",41 ± 21 U/l
same,Plasma SAA,"[3]; 5 weeks, 4 h-fasted",3 ± 0.3 µg/mL
same,Plasma fibrinogen,"[3]; 5 weeks, 4 h-fasted",2.3 ± 0.7 mg/mL
same,Decrease of ALAT levels vs control,[3]; p<0.05,79%
same,Decrease of SAA levels vs control,[3]; p<0.05,74%
